Publication PMC12455397 (Angewandte Chemie (International Ed. in English), 2025)
Where a name gives a salt, the structure may show the parent alone. Read-outs that look alike come from different tables or passages of the source.

Legend:
[1] = test system: Nrf2 KO THP1 cells differentiated into macrophages; assay: RNA sequencing transcriptome analysis, Nrf2 KO THP-1 macrophages; assay type: cell-based; details: 12 h, CDDO-Me 0.1 µM, DMF, 24, 28 10 µM, KI-696 1 µM
[2] = test system: differentiated THP1 macrophages (WT); details: for number of upregulated genes not shared by the other groups: DMF 10 µM
[3] = test system: THP1 cells; assay type: cell-based; details: THP-1 WT, 100 µM, 48 h; stated as contrast to 24/28, which did not reduce viability
Procedure: THP1 cells were exposed to the compounds for 48 hours at 10 and 100 μM. Viability was quantified using
propidium iodide exclusion through flow cytometry. PI-positive cells (dead or necrotic cells) were quantified
through red fluorescence on a BD C6 Accuri flow cytometer using a 488 nm excitation wavelength and an
emission filter of 585 nm ± 40 nm (BD Biosciences). 50,000 events were collected (n = 3 technical replicates
per condition). The experiment was repeated twice. Data are presented as mean ± SEM (n = 4‒10).

[4] = molecular target: human Keap1 Kelch (Homo sapiens, UniProt Q14145); assay: Fluorescence polarization (FP) competition assay with Cy5-Nrf2 peptide probe
Procedure: Fluorescence Polarization Assay
(3 nM) and human Keap1 Kelch at 14 nM in the 1×HBSTET assay buffer, as previously.[1, 3-5] In short, the assay was performed in black flat-bottom 384-well plates (Corning Life Sciences, NY) allowing an assay volume of 30 μL/well. Proper mixing and elimination of air bubbles was ascertained by spinning down the plates and incubation for 10–15 minutes at RT before measuring FP levels on a Safire2 plate-reader (Tecan, Männedorf, Switzerland). The Ki values of the compounds were determined by dose-response experiments (12-points, 4% DMSO in all wells), where FP values were fitted to the equation Y = Bottom + (Top - Bottom)/[1 + (10HillSlope*(LogIC50-X))]; X representing the logarithmic value of compound concentration. The resulting IC50 value, together with the Kd value (the dissociation constant between probe and Keap1 Kelch, determined in a prior experiment) and Keap1 Kelch concentrations, was used to calculate the theoretical competitive inhibition constant, the Ki value.[18]

[5] = molecular target: Keap1 Kelch domain (Homo sapiens, UniProt Q14145); assay: Surface plasmon resonance (SPR), immobilized Keap1 Kelch
Procedure: Surface Plasmon Resonance
SPR measurements were performed at 25 °C using a Pioneer FE FE instrument (Sartorius), as described
previosuly.[1, 3-4] The Keap1 Kelch domain was covalently immobilized on the biosensor chip surface by
amine coupling to a level of 2150 RU, using a 10 mM NaOAc pH 5 immobilization buffer. The 1×HBSTET
buffer (10 mM Hepes, 150 mM NaCl, 0.005% Tween20, 3 mM EDTA, 1 mM TCEP, pH = 7.4)
supplemented with 4% DMSO was used as running buffer for the experiments. Microcalibration was
performed for all SPR experiments to adjust for DMSO bulk effects (low limit of 3% and a high limit of
5%). The compound was injected in a concentration series of twofold serial dilutions (67.5–1000 µM)
using standard injections at a 30 μL/min flow rate. The data were analyzed using Qdat Data Analysis
Tool version 2.6.3.0 (Sartorius). The sensorgrams were corrected for buffer effects and unspecific
binding to the chip matrix by subtraction of blank and reference surfaces (a blank flow cell channel
activated by the injection of EDC/NHS and inactivated by the injection of ethanolamine). The
dissociation constant (Kd) was estimated by plotting MW normalized response levels (RUnorm) at equilibrium (Req) against the injected concentration and curve-fitted to a Langmuir (1:1) binding

[6] = WT, 12 h, CDDO-Me 0.1 µM, SFN, DMF, 24, 28 10 µM, KI-696 1 µM
[7] = WT, 12 h, CDDO-Me 0.1 µM, SFN, DMF, 24, 28 10 µM, KI-696 1 µM, NS = not significant

Chain of Keap1 Kelch domain (Q14145 321-609 limits assumed): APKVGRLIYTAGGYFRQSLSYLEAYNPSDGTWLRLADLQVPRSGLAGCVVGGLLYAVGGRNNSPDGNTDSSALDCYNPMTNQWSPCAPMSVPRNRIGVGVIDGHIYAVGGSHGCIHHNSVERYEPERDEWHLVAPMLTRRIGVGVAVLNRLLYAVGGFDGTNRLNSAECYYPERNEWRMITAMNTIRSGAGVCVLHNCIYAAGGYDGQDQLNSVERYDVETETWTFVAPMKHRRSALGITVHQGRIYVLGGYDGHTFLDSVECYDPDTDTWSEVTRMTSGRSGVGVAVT
Chain of human Keap1 Kelch (Q14145 321-609): as the sequence (Q14145 321-609 limits assumed) above

SMILES | AKR1B10 FC ([2]; Table S3, THP-1, 12 h) | CASP1 FC ([2]; Table S3, THP-1, 12 h) | COL1A1 FC ([2]; Table S3, THP-1, 12 h) | COL4A1 FC ([2]; Table S3, THP-1, 12 h) | COL4A2 FC ([2]; Table S3, THP-1, 12 h) | GPX1 FC ([2]; Table S3, THP-1, 12 h) | GPX4 FC ([2]; Table S3, THP-1, 12 h) | IFNAR1 FC ([2]; Table S3, THP-1, 12 h) | IFNAR2 FC ([2]; Table S3, THP-1, 12 h) | IFNGR1 FC ([2]; Table S3, THP-1, 12 h) | IFNGR2 FC ([2]; Table S3, THP-1, 12 h) | IL1B FC ([2]; Table S3, THP-1, 12 h) | IRF3 FC ([2]; Table S3, THP-1, 12 h) | LAMB1 FC ([2]; Table S3, THP-1, 12 h) | LAMB4 FC ([2]; Table S3, THP-1, 12 h) | MMP8 FC ([2]; Table S3, THP-1, 12 h) | MMP9 FC ([2]; Table S3, THP-1, 12 h) | MMP12 FC ([2]; Table S3, THP-1, 12 h) | NLRP3 FC ([2]; Table S3, THP-1, 12 h) | NOD2 FC ([2]; Table S3, THP-1, 12 h) | other results
COc1cc([C@@H](CC(=O)O)c2ccc(C)c(CN3C[C@@H](C)Oc4ccccc4S3(=O)=O)c2)cc2nnn(C)c12 [KI-696] | 26,39 fold | 0,94 fold | 1,59 fold | 0,61 fold | 0,77 fold | 1,38 fold | 1,74 fold | 0,90 fold | 1,02 fold | 0,70 fold | 0,91 fold | 0,85 fold | 1,43 fold | 2,64 fold | 3,38 fold | 0,82 fold | 1,21 fold | 0,60 fold | 0,78 fold | 0,57 fold | number of up- or downregulated genes in Nrf2 KO cells [1]: none; CYP1B1 FC ([2]; Table S3, THP-1, 12 h): 0,76 fold; NOXA1 FC ([2]; Table S3, THP-1, 12 h): 0,92 fold; SOCS1 FC ([2]; Table S3, THP-1, 12 h): 2,43 fold; SOCS3 FC ([2]; Table S3, THP-1, 12 h): 1,66 fold; SOD1 FC ([2]; Table S3, THP-1, 12 h): 1,75 fold; SOD2 FC ([2]; Table S3, THP-1, 12 h): 0,87 fold; STAT1 FC ([2]; Table S3, THP-1, 12 h): 0,69 fold; TBK1 FC ([2]; Table S3, THP-1, 12 h): 1,56 fold; TLR4 FC ([2]; Table S3, THP-1, 12 h): 0,32 fold; TNFRSF1B FC ([2]; Table S3, THP-1, 12 h): 1,13 fold; TRAP1 FC ([2]; Table S3, THP-1, 12 h): 1,02 fold; cGAS FC ([2]; Table S3, THP-1, 12 h): 1,08 fold; Average FC of upregulated Nrf2-dependent genes [2, 6]: 2.4 fold; number of upregulated genes (FC >2.0, p-adj <0.05) [2, 6]: 88 genes; GCLM fold change vs vehicle [2, 7]: 2.5 fold; GSR fold change vs vehicle [2, 7]: 2.4 fold; HMOX1 fold change vs vehicle [2, 7]: 2.6 fold; NQO1 fold change vs vehicle [2, 7]: 2.3 fold; TXNRD1 fold change vs vehicle [2, 7]: 2.3 fold
C[S+]([O-])CCCCN=C=S (stereo not shown) [SFN, sulforaphane] | 34,78 fold | 0,45 fold | 0,98 fold | 0,55 fold | 1,38 fold | 0,53 fold | 0,94 fold | 0,88 fold | 0,85 fold | 0,63 fold | 0,58 fold | 0,36 fold | 1,48 fold | 7,81 fold | 17,37 fold | 0,32 fold | 0,70 fold | 0,29 fold | 0,44 fold | 0,16 fold | CYP1B1 FC [2]: 1,15 fold; NOXA1 FC ([2]; Table S3, THP-1, 12 h): 0,45 fold; SOCS1 FC ([2]; Table S3, THP-1, 12 h): 2,19 fold; SOCS3 FC ([2]; Table S3, THP-1, 12 h): 0,99 fold; SOD1 FC ([2]; Table S3, THP-1, 12 h): 2,16 fold; SOD2 FC ([2]; Table S3, THP-1, 12 h): 0,40 fold; STAT1 FC ([2]; Table S3, THP-1, 12 h): 0,66 fold; TBK1 FC ([2]; Table S3, THP-1, 12 h): 0,95 fold; TLR4 FC ([2]; Table S3, THP-1, 12 h): 0,43 fold; TNFRSF1B FC ([2]; Table S3, THP-1, 12 h): 1,19 fold; TRAP1 FC ([2]; Table S3, THP-1, 12 h): 0,74 fold; cGAS FC ([2]; Table S3, THP-1, 12 h): 1,42 fold; Average FC of upregulated Nrf2-dependent genes [2, 6]: 4.1 fold; number of upregulated genes (FC >2.0, p-adj <0.05) [2, 6]: 676 genes; GCLM fold change vs vehicle [2, 7]: 4.7 fold; GSR fold change vs vehicle [2, 7]: 3.4 fold; SRXN1 fold change vs vehicle [2, 7]: 4.5 fold; TXNRD1 fold change vs vehicle [2, 7]: 3.9 fold; cell viability [3]: contrasted
O=C(COc1ccccc1)NC1CCCCC1 [Compound 1] |  |  |  |  |  |  |  |  |  |  |  |  |  |  |  |  |  |  |  |  | activity in FP competition assay [4]: inactive; Kd ([5]; KD (SPR, printed in Figure 1b), Rmax fixed to theoretical maximum (15 RU)): 686 ± 7 µM; Kd ([5]; Kd (SPR), estimated with Rmax fixed to theoretical maximum): ~700 µM; ligand efficiency (LE) ([5]; from SPR Kd): 0.25
COC(=O)[C@]12CCC(C)(C)C[C@H]1[C@H]1C(=O)C=C3[C@@]4(C)C=C(C#N)C(=O)C(C)(C)[C@@H]4CC[C@@]3(C)[C@]1(C)CC2 [CDDO-Me, bardoxolone methyl] | 61,69 fold | 1,31 fold | 3,46 fold | 0,30 fold | 0,49 fold | 0,44 fold | 0,91 fold | 0,82 fold | 0,52 fold | 0,81 fold | 0,41 fold | 0,13 fold | 0,95 fold | 3,83 fold | 5,61 fold | 0,21 fold | 0,51 fold | 0,25 fold | 0,43 fold | 0,78 fold | number of up- or downregulated genes in Nrf2 KO cells [1]: 2149 genes; NOXA1 FC ([2]; Table S3, THP-1, 12 h): 0,67 fold; SOCS1 FC ([2]; Table S3, THP-1, 12 h): 0,37 fold; SOCS3 FC ([2]; Table S3, THP-1, 12 h): 1,14 fold; SOD1 FC ([2]; Table S3, THP-1, 12 h): 2,71 fold; SOD2 FC ([2]; Table S3, THP-1, 12 h): 0,36 fold; STAT1 FC ([2]; Table S3, THP-1, 12 h): 1,02 fold; TBK1 FC ([2]; Table S3, THP-1, 12 h): 1,06 fold; TLR4 FC ([2]; Table S3, THP-1, 12 h): 0,26 fold; TNFRSF1B FC ([2]; Table S3, THP-1, 12 h): 0,27 fold; TRAP1 FC ([2]; Table S3, THP-1, 12 h): 0,64 fold; cGAS FC ([2]; Table S3, THP-1, 12 h): 1,19 fold; number of upregulated genes not shared by the other groups ([2]; WT, 12 h, CDDO-Me 0.1 µM): > 500 genes; Average FC of upregulated Nrf2-dependent genes [2, 6]: 5.0 fold; number of upregulated genes (FC >2.0, p-adj <0.05) [2, 6]: 1091 genes
COC(=O)/C=C/C(=O)OC [DMF, dimethyl fumarate] | 1,00 fold | 0,18 fold | 0,44 fold | 1,46 fold | 1,16 fold | 0,59 fold | 1,09 fold | 0,95 fold | 0,80 fold | 0,93 fold | 0,78 fold | 2,70 fold | 1,15 fold | 4,44 fold | 7,56 fold | 1,70 fold | 0,85 fold | 1,88 fold | 1,19 fold | 0,31 fold | number of up- or downregulated genes in Nrf2 KO cells [1]: 3709 genes; NOXA1 FC ([2]; Table S3, THP-1, 12 h): 0,30 fold; SOCS1 FC ([2]; Table S3, THP-1, 12 h): 5,21 fold; SOCS3 FC ([2]; Table S3, THP-1, 12 h): 18,01 fold; SOD1 FC ([2]; Table S3, THP-1, 12 h): 1,73 fold; SOD2 FC ([2]; Table S3, THP-1, 12 h): 0,19 fold; STAT1 FC ([2]; Table S3, THP-1, 12 h): 0,62 fold; TBK1 FC ([2]; Table S3, THP-1, 12 h): 1,19 fold; TLR4 FC ([2]; Table S3, THP-1, 12 h): 0,84 fold; TNFRSF1B FC ([2]; Table S3, THP-1, 12 h): 1,26 fold; TRAP1 FC ([2]; Table S3, THP-1, 12 h): 0,85 fold; cGAS FC ([2]; Table S3, THP-1, 12 h): 1,04 fold; number of upregulated genes not shared by the other groups ([2]; WT, 12 h, CDDO-Me 0.1 µM): > 500 genes; Average FC of upregulated Nrf2-dependent genes [2, 6]: 4.2 fold; number of upregulated genes (FC >2.0, p-adj <0.05) [2, 6]: 845 genes; cell viability [3]: contrasted
